The text below walks through data of PubChem BioAssay (NCI).

Structures are written as SMILES.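 Test compounds were applied to cells in 96-well plates for 48 hours at 5 doses. GI50: concentration for 50% inhibition of growth. Definition used: TGI = concentration required for complete inhibition of growth.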

Common to all, as to experiment: NCI anticancer screen, dose series, 48 h
For test [1], the system named is T-47D breast.
Test [2] deals with BT-549 breast.
Test [3] has as its system LOX IMVI melanoma.
The subject of test [4] is SNB-78 CNS.
The test system of test [5] is DMS 273 small cell lung.
Test [6] deals with KM20L2 colon.
The subject of test [7] is HOP-18 NSCLC.
Test [8] has as its system M19-MEL melanoma.
For test [9], the system named is DLD-1 colon.
For test [10], the system named is LXFL 529 NSCLC.
The test system of test [11] is DMS 114 small cell lung.
Test [12] relates to NCI/ADR-RES ovarian.
The subject of test [13] is MDA-MB-435.
For test [14], the system named is RXF 393 renal.

Take `CCCCCCCCCCCCCCCc1ccc(C(=O)C[n+]2ccccc2)cc1`: the results for the GI50 in [1], in test [2] and in test [3] were 1.38 µM, 2.88 µM and 0.348 µM, respectively. The values for the TGI in test [1], in test [2] and in test [3] were 3.77 µM, 12.3 µM and 1.19 µM, respectively.

`NC(=O)OCc1c(O)c2c(c(O)c1COC(N)=O)C(=O)C=CC2=O`: the TGI was more than 100 µM in test [4]; more than 100 µM in test [5]; more than 100 µM in test [6]; more than 100 µM in test [7]; 11.8 µM in test [8]; more than 100 µM in test [9]. The TGI in test [10] and in test [11] was more than 100 µM in each case.

As for `COc1ccc(C2C(Cl)C(=O)N2NC(=O)c2ccc(NC(C)=O)cc2)cc1OC` (stereo not drawn), the TGI in [7], in test [8] and in [10] was more than 100 µM throughout.

In the case of `N=C(N)c1ccc(-c2ccc(-c3ccccc3)o2)cc1`, the GI50 in test [12] was 2.2 µM; in [2], 13.1 µM; in test [13], 1.66 µM. Further, the TGI in [12] came to 5.85 µM; in test [2] it was 39.9 µM; in test [13], 3.03 µM.

With `O=C(Nc1ccc(-n2cc(-c3ccncc3)c(-c3ccc(O)c(Cl)c3)n2)cc1)c1ccc(Cl)c(Cl)c1`, the GI50 in test [12] is 2.02 µM; in test [1] it was 2.37 µM; in [14], 0.49 µM; in [3], 0.779 µM; in test [13] it was 2.06 µM. Further, the TGI is more than 32.5 µM in test [12]; more than 32.5 µM in [1]; 1.1 µM in test [14]; 2.88 µM in test [3]; more than 32.5 µM in [13].
